Test results: the NIST ThermoML archive (doi:10.1021/je200721d)

Assay: xn = mol fraction of the nth substance listed
Conditions: Liquid, Vibrating tube method

CCCCCCCC [octane] + CCCCCC
Conditions	mass density [kg/m3]
313.14 K, 18000 kPa, x2 = 0.1654	697.47
313.14 K, 18000 kPa, x2 = 0.5749	683.06
313.14 K, 18000 kPa, x2 = 0.7995	672.32
313.14 K, 18000 kPa, x2 = 0.9308	665.28
313.14 K, 19000 kPa, x2 = 0.1654	698.27
313.14 K, 19000 kPa, x2 = 0.5749	683.89
313.14 K, 19000 kPa, x2 = 0.7995	673.21
313.14 K, 19000 kPa, x2 = 0.9308	666.2
313.14 K, 20000 kPa, x2 = 0.1654	699.05
313.14 K, 20000 kPa, x2 = 0.5749	684.72
313.14 K, 20000 kPa, x2 = 0.7995	674.07
313.14 K, 20000 kPa, x2 = 0.9308	667.1
313.14 K, 21000 kPa, x2 = 0.1654	699.81
313.14 K, 21000 kPa, x2 = 0.5749	685.52
313.14 K, 21000 kPa, x2 = 0.7995	674.92
313.14 K, 21000 kPa, x2 = 0.9308	667.97
313.14 K, 22000 kPa, x2 = 0.1654	700.55
313.14 K, 22000 kPa, x2 = 0.5749	686.32
313.14 K, 22000 kPa, x2 = 0.7995	675.74
313.14 K, 22000 kPa, x2 = 0.9308	668.8
313.14 K, 23000 kPa, x2 = 0.1654	701.28
313.14 K, 23000 kPa, x2 = 0.5749	687.1
313.14 K, 23000 kPa, x2 = 0.7995	676.52
313.14 K, 23000 kPa, x2 = 0.9308	669.6
313.14 K, 24000 kPa, x2 = 0.1654	701.98
313.14 K, 24000 kPa, x2 = 0.5749	687.85
313.14 K, 24000 kPa, x2 = 0.7995	677.27
313.14 K, 24000 kPa, x2 = 0.9308	670.36
313.14 K, 25000 kPa, x2 = 0.1654	702.7
313.14 K, 25000 kPa, x2 = 0.5749	688.59
313.14 K, 25000 kPa, x2 = 0.7995	677.99
313.14 K, 25000 kPa, x2 = 0.9308	671.1
323.06 K, 1000 kPa, x2 = 0.5749	658.22
323.06 K, 2000 kPa, x2 = 0.5749	659.25
323.06 K, 3000 kPa, x2 = 0.5749	660.31
323.06 K, 4000 kPa, x2 = 0.5749	661.34
323.06 K, 5000 kPa, x2 = 0.5749	662.42
323.06 K, 6000 kPa, x2 = 0.5749	663.46
323.06 K, 7000 kPa, x2 = 0.5749	664.53
323.06 K, 8000 kPa, x2 = 0.5749	665.61
323.06 K, 9000 kPa, x2 = 0.5749	666.67
323.06 K, 10000 kPa, x2 = 0.5749	667.73
323.06 K, 11000 kPa, x2 = 0.5749	668.78
323.06 K, 12000 kPa, x2 = 0.5749	669.81
323.06 K, 13000 kPa, x2 = 0.5749	670.83
323.06 K, 14000 kPa, x2 = 0.5749	671.84
323.06 K, 15000 kPa, x2 = 0.5749	672.81
323.06 K, 16000 kPa, x2 = 0.5749	673.78
323.06 K, 17000 kPa, x2 = 0.5749	674.72
323.06 K, 18000 kPa, x2 = 0.5749	675.63
323.06 K, 19000 kPa, x2 = 0.5749	676.52
323.06 K, 20000 kPa, x2 = 0.5749	677.38
323.06 K, 21000 kPa, x2 = 0.5749	678.25
323.06 K, 22000 kPa, x2 = 0.5749	679.1
323.06 K, 23000 kPa, x2 = 0.5749	679.9
323.06 K, 24000 kPa, x2 = 0.5749	680.71
323.06 K, 25000 kPa, x2 = 0.5749	681.47
323.07 K, 1000 kPa, x2 = 0.2199	672.17
323.07 K, 2000 kPa, x2 = 0.2199	673.14
323.07 K, 3000 kPa, x2 = 0.2199	674.14
323.07 K, 4000 kPa, x2 = 0.2199	675.13
323.07 K, 5000 kPa, x2 = 0.2199	676.14
323.07 K, 6000 kPa, x2 = 0.2199	677.12
323.07 K, 7000 kPa, x2 = 0.2199	678.12
323.07 K, 8000 kPa, x2 = 0.2199	679.13
323.07 K, 9000 kPa, x2 = 0.2199	680.12
323.07 K, 10000 kPa, x2 = 0.2199	681.12
323.07 K, 11000 kPa, x2 = 0.2199	682.09
323.07 K, 12000 kPa, x2 = 0.2199	683.06
323.07 K, 13000 kPa, x2 = 0.2199	684.02
323.07 K, 14000 kPa, x2 = 0.2199	684.97
323.07 K, 15000 kPa, x2 = 0.2199	685.89
323.07 K, 16000 kPa, x2 = 0.2199	686.79
323.07 K, 17000 kPa, x2 = 0.2199	687.68
323.07 K, 18000 kPa, x2 = 0.2199	688.54
323.07 K, 19000 kPa, x2 = 0.2199	689.38
323.07 K, 20000 kPa, x2 = 0.2199	690.21
323.07 K, 21000 kPa, x2 = 0.2199	691.03
323.07 K, 22000 kPa, x2 = 0.2199	691.83
323.07 K, 23000 kPa, x2 = 0.2199	692.58
323.07 K, 24000 kPa, x2 = 0.2199	693.35
323.07 K, 25000 kPa, x2 = 0.2199	694.1
323.08 K, 1000 kPa, x2 = 0.1654	674.04
323.08 K, 2000 kPa, x2 = 0.1654	675.02
323.08 K, 3000 kPa, x2 = 0.1654	676
323.08 K, 4000 kPa, x2 = 0.1654	676.97
323.08 K, 5000 kPa, x2 = 0.1654	677.97
323.08 K, 6000 kPa, x2 = 0.1654	678.97
323.08 K, 7000 kPa, x2 = 0.1654	679.95
323.08 K, 8000 kPa, x2 = 0.1654	680.93
323.08 K, 9000 kPa, x2 = 0.1654	681.93
323.08 K, 10000 kPa, x2 = 0.1654	682.9
323.08 K, 11000 kPa, x2 = 0.1654	683.88
323.08 K, 12000 kPa, x2 = 0.1654	684.84
